Where two headings read alike, the source gives them in different places.
Tests used:
[1] = tested on: salivary secretory immunoglobulin A (sIgA); assay: Measurement of salivary secretory immunoglobulin A (EIA); type: in vivo, human
Excerpt: Salivary cortisol, which was examined as a biochemical index for a mental load, is used as a stress marker because of simplicity of measurement due to the high correlation with blood cortisol, and known to be increased by an acute mental stress, for example, caused at making a speech in front of others or doing mental calculation or by continuous, high-intensity exercise. Because the salivary cortisol concentration is known to show circadian variation, being high in the morning and then declining as the night approaches, mental load application (calculation load; Uchida-Kraepelin test) was performed in the morning in this study. Salivary secretory immunoglobulin A (sIgA) is an antibody produced by B cells that inhibits the proliferation of pathogens on the mucosa of the oral cavity, airway, intestines, and other organs. It is known that reduction of sIgA in saliva is associated with the development of upper respiratory tract infection and that salivary sIgA concentration decreases under chronic stress and increases in a relaxed state.
Saliva samples were collected from the subjects in the morning of the day of assessment (before load application) in the same manner as in (1) of [5-2]. The sIgA concentration in each saliva sample was measured with an enzyme immunoassay (EIA) kit (EIA s-IgA Test Kit, Medical & Biological Laboratories Co., Ltd.).

[2] = previously: 12 mg/day of astaxanthin and 40 mg/day of tocotrienol for eight weeks; cited from earlier work
[3] = tested on: human having a sense of fatigue; assay: OSA sleep analysis (OSA sleep inventory MA version); type: in vivo
Protocol: A placebo-controlled, randomized, double-blind, parallel-group study was employed for ingestion of the test food, and two groups, namely, the control group (placebo group) with ingestion of a capsule not containing astaxanthin and the astaxanthin group with ingestion of a capsule containing 6 mg of astaxanthin (120 mg of Haematococcus algae extract and 10 mg of tocotrienol mixture derived from palm oil) were compared through a double-blind method. For ingestion of the test food, the subjects were instructed to ingest one capsule twice daily (total 12 mg of astaxanthin (240 mg of Haematococcus algae extract and 20 mg of tocotrienol mixture derived from palm oil) in two capsules per day), one after breakfast (or after the first meal of the day if no breakfast was taken) and the other after dinner, with water or lukewarm water within 30 min of eating. The overall duration for ingestion was 8 weeks (12 weeks only for the OSA sleep analysis). The subjects were also instructed to record their test food ingestion, drinking, and exercise in a diary every day, from the first day to the last day of ingestion.
In accordance with a method reported in Yukari Yamamoto, Hideki Tanaka, Miki Takase, Katuo Yamazaki, Kazuo Azumi, and Shuichiro Shirakawa: “Development and standardization of OSA sleep inventory (MA version) for middle-aged and elderly individuals”, Brain Science and Mental Disorders, vol. 10, p 401-409, 1999, the subjects were instructed to evaluate with respect to items listed in the OSA sleep inventory, and the results were analyzed. The assessment was performed once in the morning of the day of assessment (before load application). The OSA sleep inventory (MA version) consists of 16 items in terms of five factors, namely, First factor: sleepiness on rising, Second factor: initiation and maintenance of sleep, Third factor: frequent dreaming, Fourth factor: refreshing, and Fifth factor: sleep length, and the subjects were instructed to answer each question from four choices, and the results were converted to scores with a conversion table for analysis.

[4] = as high as that of vitamin E; cited from earlier work
[5] = Study 2: temporal change of human blood (plasma) astaxanthin level on long-term ingestion; type: in vivo
Protocol: This study is a study in humans to confirm how the blood (plasma) astaxanthin level changes through long-term ingestion of astaxanthin. While the blood (serum) astaxanthin level was measured at the completion of ingestion (after 12-week ingestion) in Study 1, Study 2 is, specifically, a study in humans to confirm how the blood (plasma) astaxanthin level behaves in the case that the period of ingestion is shorter than 12 weeks.
Ten healthy Japanese men and women at age of 20 years or older and younger than 50 years
Each subject ingested two capsules per day, each capsule containing 60 mg (6 mg in terms of the free form of astaxanthin) of Haematococcus algae extract and 270 mg of edible fat and oil, with water 30 minutes after breakfast (12 mg/day in terms of the free form of astaxanthin) for 42 days.
Blood sampling was performed one day, six days, 13 days, 20 days, 27 days, 34 days, and 42 days after the initiation of ingestion of the capsules to obtain the plasma. The plasma astaxanthin level was measured by using the method in [5-4] in Study 1 with HPLC.

[6] = Adverse events in Study 1; type: in vivo, human
[7] = tested on: human having a sense of fatigue; assay: Continuous calculation task (Uchida-Kraepelin test), task performance with a mental load; type: in vivo; settings: after 8-week ingestion, vs control group (FIG. 18)
Protocol: A mental load was applied to each subject by a continuous calculation task with the Uchida-Kraepelin test (Nisseiken Inc., Japan) consisting of two sessions of a 15-min serial addition task (total 30 min), with a 5-min rest period between the first and second sessions. Specifically, the subjects were instructed to sequentially add two adjoining single-digit numbers (combination of 3, 4, 5, 6, 7, 8, and 9), record only the last digit (one's place) of the sum, spend only 1 min on each line, and then quickly move on to the next line of numbers for calculation. This task was continued for 15 min in each session. After the completion of the task, the number of calculations and the number of wrong answers were counted to calculate the percentage of correct answers, and the results for the first session were subtracted from those for the second session to determine change in task performance in the second session, which was used as the task performance with a mental load.

[8] = astaxanthin group vs pre-ingestion, no significant difference (FIG. 2)
[9] = 2 capsules/day (12 mg/day free form) for 42 days (FIG. 20)
[10] = throughout the study period, 12 mg/day

Question: Which “salivary sIgA concentration” value ([1]; after 8-week ingestion) does the source give for `CC1=C(/C=C/C(C)=C/C=C/C(C)=C/C=C/C=C(C)/C=C/C=C(C)/C=C/C2=C(C)C(=O)C(O)CC2(C)C)C(C)(C)CC(O)C1=O` (stereo not drawn) [astaxanthin, 3,3′-dihydroxy-β,β-carotene-4,4′-dione] here?
Answer: 41.9 ± 5.5 µg/mL

Question: What about the “salivary sIgA concentration” value ([1]; at pre-ingestion (before load application), astaxanthin group) of the same molecule?
Answer: 46.5 ± 8.2 µg/mL

Question: What about the “change in salivary sIgA concentration” value ([1]; until week 8 of ingestion vs pre-ingestion (FIG. 8)) of the same molecule?
Answer: no significant change

Question: What about the adverse event [2] of the same molecule?
Answer: No adverse event

Question: What about the “OSA First factor (sleepiness on rising)” value [3, 8] of the same molecule?
Answer: large increase

Question: And the “OSA Fourth factor (refreshing)” value [3, 8]?
Answer: large increase

Question: And the “OSA Second factor (initiation and maintenance of sleep)” value [3, 8]?
Answer: large increase

Question: And the “OSA Fifth factor (sleep length)” value ([3]; astaxanthin group, 12 mg/day, vs pre-ingestion (FIG. 2))?
Answer: marginally significant increase

Question: And the “degree of improvement in Fifth factor (sleep length) compared with chamomile tea” value ([3]; vs literature: 200 mL chamomile tea 1 hour before bedtime over three days)?
Answer: larger

Question: What about the “antioxidative effect relative to vitamin E” value [4] of the same molecule?
Answer: 1000 times

Question: What about the “human blood (plasma) astaxanthin level at plateau” value [5, 9] of the same molecule?
Answer: approximately 200 ng/mL

Question: And the “time after initiation of ingestion at which plasma astaxanthin level plateaued” value [5, 9]?
Answer: about six

Question: What about the “human blood (plasma) astaxanthin level during continued ingestion” value ([5]; as long as ingestion of astaxanthin-containing food was continued) of the same molecule?
Answer: not lowered

Question: And the adverse event ([6]; this study)?
Answer: no adverse event was found

Question: And the adverse subjective symptoms [6, 10]?
Answer: none of the subjects complained

Question: And the “medical examination by a physician” value [6, 10]?
Answer: no remarkable abnormalities

Question: What about the “change in the number of wrong answers in the second session, continuous calculation task” value [7] of the same molecule?
Answer: significant improvement

Question: And the “percentage of correct answers in the second session, continuous calculation task” value [7]?
Answer: significant improvement
